Key:
[1] = target: T1, D(4) dopamine receptor (Homo sapiens, UniProt P21917); test: Inhibitory concentration against binding of [3H]spiperone to human D4 dopaminergic receptor
T1 sequence (P21917 whole entry): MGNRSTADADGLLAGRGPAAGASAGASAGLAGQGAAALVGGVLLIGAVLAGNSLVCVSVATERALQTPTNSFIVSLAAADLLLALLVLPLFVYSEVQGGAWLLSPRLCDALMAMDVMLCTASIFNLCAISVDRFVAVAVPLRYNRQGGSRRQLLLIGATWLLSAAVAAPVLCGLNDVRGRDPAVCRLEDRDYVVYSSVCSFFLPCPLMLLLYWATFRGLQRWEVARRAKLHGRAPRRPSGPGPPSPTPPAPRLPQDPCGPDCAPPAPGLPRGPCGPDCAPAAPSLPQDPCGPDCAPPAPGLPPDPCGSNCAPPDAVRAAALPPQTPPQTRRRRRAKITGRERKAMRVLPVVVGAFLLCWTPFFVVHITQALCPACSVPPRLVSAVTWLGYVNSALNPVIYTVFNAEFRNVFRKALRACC

[2] = target: T1, D(4) dopamine receptor; test: Potency was measured by the displacement of [3H]-spiperone binding to human D4 dopaminergic receptor
[3] = target: D(2) dopamine receptor (Homo sapiens, UniProt P14416); test: Inhibitory concentration against binding of [3H]spiperone to human D2 dopaminergic receptor
Chain of D(2) dopamine receptor (P14416 whole entry): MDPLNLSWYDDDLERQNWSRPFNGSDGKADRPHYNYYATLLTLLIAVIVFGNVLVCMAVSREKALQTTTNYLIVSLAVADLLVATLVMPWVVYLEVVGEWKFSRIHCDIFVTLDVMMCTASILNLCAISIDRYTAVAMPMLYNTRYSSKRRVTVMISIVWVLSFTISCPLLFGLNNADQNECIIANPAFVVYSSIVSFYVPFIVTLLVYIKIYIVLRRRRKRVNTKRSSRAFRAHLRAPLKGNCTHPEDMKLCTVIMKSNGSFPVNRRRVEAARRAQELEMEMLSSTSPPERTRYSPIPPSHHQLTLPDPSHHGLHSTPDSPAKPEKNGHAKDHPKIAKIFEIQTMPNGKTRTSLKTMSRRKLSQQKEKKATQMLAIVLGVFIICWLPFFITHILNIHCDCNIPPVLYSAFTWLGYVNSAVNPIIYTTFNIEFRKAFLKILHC

Row | Compound | IC50 [1] | Ki [2] | IC50 [3]
1 | Oc1ccc(CC2NCCc3cc(O)c(O)cc32)cc1O (centres undefined) | – | 2.5 µM | –
2 | CC1NCCc2cc(O)c(O)cc21 (centres undefined) | – | 6.4 µM | –
3 | CN1CCc2cc(O)c(O)cc2C1Cc1ccc(O)c(O)c1 (centres undefined) | – | 0.35 µM | –

Next, values leading:

Row | IC50 [1] | Ki [2] | IC50 [3] | Compound
4 | 47.5 µM | 1.2 µM | – | OC[C@H]1O[C@H](Oc2ccc(CC3NCCc4cc(O)c(O)cc43)cc2)[C@H](O)[C@H](O)[C@H]1O (some centres undefined)
5 | 39.2 µM | 0.5 µM | 1.03 µM | Oc1ccc2c(c1)CCN2
6 | – | 3.1 µM | – | Oc1ccc(CC2NCCc3cc(O)c(O)cc32)cc1 (centres undefined) [HIGENAMINE]

— ChEMBL document CHEMBL1129926, “D4 dopamine receptor-selective compounds from the Chinese plant Phoebe chekiangensis” (Bioorg Med Chem Lett, 1997)
